{
  "source": "patent US11219625B2",
  "about": "“Inhibitors of N-linked glycosylation and methods using same” (YALE UNIVERSITY, priority 2015, dated 2022)",
  "format_in_all_cases": "cell-based",
  "key": {"A549 cells": {"test_system": "A549 cells", "experiment": "MTT proliferation assay, A549", "conditions": "A549, 10 μM NGI-1 or 1 μM tunicamycin", "protocol": "FIGS. 4A-4H illustrate the finding that NGI-1 blocks RTK driven proliferation. FIG. 4A illustrates western blot analysis of EGFR phosphorylation (Y1173) and gel mobility in PC9 (EGFR-mutant) and A549 (k-ras mutant) NSCLC cells after 10 μM NGI-1 treatment for 24 h. […] Actin expression was used as a control for protein loading. FIG. 4B illustrates MTT assays results of PC9 following treatment with 10 μM NGI-1 or 1 μM tunicamycin for a total of 5 d. Relative proliferation id reported in fold increase from day 0. FIG. 4C illustrates MTT assays results of A549 following treatment with 10 μM NGI-1 or 1 μM tunicamycin for a total of 5 d. Relative proliferation id reported in fold increase from day 0. FIG. 4D illustrates protein phosphorylation profiles of PC9 cells analyzed by phospho-protein array to assess the response of PC9 to 10 μM NGI-1 for 24 h. FIG. 4E illustrates protein phosphorylation profiles of A549 cells analyzed by phospho-protein array to assess the response of A549 to 10 μM NGI-1 for 24 h. […]\nGrowth rates were determined by CellTiter 96 NonRadioactive Cell Proliferation Assay (Promega; Madison, Wis. USA) according to the manufacturer's directions. […] Cell numbers were estimated after 0, 3, and 5 days by adding MTT [(3-(4,5-Dimethylthiazol-2-yl)-2,5-diphenyltetrazolium bromide] reagent to the wells 4 hours before taking the spectrophotometric reading (absorbance at 570 nm)."}, "EGFR": {"test_system": "EGFR", "experiment": "Western blot of EGFR phosphorylation, PC9 cells", "conditions": "PC9, 10 μM NGI-1, 1 day", "protocol": "FIGS. 4A-4H illustrate the finding that NGI-1 blocks RTK driven proliferation. FIG. 4A illustrates western blot analysis of EGFR phosphorylation (Y1173) and gel mobility in PC9 (EGFR-mutant) and A549 (k-ras mutant) NSCLC cells after 10 μM NGI-1 treatment for 24 h. […] Actin expression was used as a control for protein loading. FIG. 4B illustrates MTT assays results of PC9 following treatment with 10 μM NGI-1 or 1 μM tunicamycin for a total of 5 d. Relative proliferation id reported in fold increase from day 0. FIG. 4C illustrates MTT assays results of A549 following treatment with 10 μM NGI-1 or 1 μM tunicamycin for a total of 5 d. Relative proliferation id reported in fold increase from day 0. FIG. 4D illustrates protein phosphorylation profiles of PC9 cells analyzed by phospho-protein array to assess the response of PC9 to 10 μM NGI-1 for 24 h. FIG. 4E illustrates protein phosphorylation profiles of A549 cells analyzed by phospho-protein array to assess the response of A549 to 10 μM NGI-1 for 24 h. FIG. 4F illustrates western blot analysis of FGFR phosphorylation (Y653/654) and gel mobility for H1581 (TKI sensitive) and H2444 (TKI insensitive) NSCLC cell lines. […] FIG. 4G illustrates MTT assays for H1581 cells treated with 10 μM NGI-1 for 5 d. Asterisk (***) indicates a significant difference p<0.001 for MTT. FIG. 4H illustrates MTT assays for H2444 cells treated with 10 μM NGI-1 for 5 d. […]"}, "HCC827 cells": {"test_system": "HCC827 cells", "experiment": "MTT proliferation assay, HCC827", "conditions": "HCC827, 10 μM NGI-1, 5 d, p<0.05", "protocol": "FIGS. 7A-7D illustrate EGFR kinase domain mutant cell lines growth inhibition and cell cycle arrest response to NGI-1. FIG. 7A illustrates MTT assays to determine the effects of NGI-1 on growth of H3255 cells. FIG. 7B illustrates MIT assays to determine the effects of NGI-1 on growth of HCC827 cells. EGFR kinase domain mutant cell lines H3255 and HCC827 cells were untreated or treated with 10 μM NGI-1 for 5 d. […] FIG. 7C illustrates cell cycle distribution of H3255 after 24 h NGI-1 treatment for 24 h determined by flow cytometry. FIG. 7D illustrates cell cycle distribution of HCC827 after 24 h NGI-1 treatment for 24 h determined by flow cytometry.\nGrowth rates were determined by CellTiter 96 NonRadioactive Cell Proliferation Assay (Promega; Madison, Wis. USA) according to the manufacturer's directions. Briefly, NSCLC cells (2×10^3) untreated or treated with […] NGI-1 or 1 μM Tn, were seeded in triplicates in 96-wells plates and grown in culture medium containing […]. Cell numbers were estimated after 0, 3, and 5 days by adding MTT [(3-(4,5-Dimethylthiazol-2-yl)-2,5-diphenyltetrazolium bromide] reagent to the wells 4 hours before taking the spectrophotometric reading (absorbance at 570 nm)."}},
  "data": [
    {"smiles": "Cc1cnc(NC(=O)c2cc(S(=O)(=O)N(C)C)ccc2N2CCCC2)s1", "note": "[NGI-1, 5-(N,N-Dimethylsulfamoyl)-N-(5-methylthiazol-2-yl)-2-(pyrrolidin-1-yl)benzamide]", "values": [
      {"measurement": "effect on proliferation, MTT", "setting": "A549 cells", "result": "continued to proliferate"},
      {"measurement": "EGFR phosphorylation", "setting": "EGFR", "result": "blocked phosphorylation of KD mutant EGFR"},
      {"measurement": "reduction of proliferation, MTT", "setting": "HCC827 cells", "result": "> 45", "unit": "%"}
    ]}
  ]
}
